# Assay results from patent US20240116985A1, “STAPLED PEPTIDES AND METHODS THEREOF” (priority 2020, published 2024).
# Read-outs that look alike come from different tables or passages of the source.
# How the values were obtained:
# CHI Log D procedure = type: physicochemical; details: for CHI Log D: pH 7.4; for chromatographic logD: pH 7.4, CHI Log D
# Solubility in PBS = type: physicochemical
# In short: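 Steps: ultracentrifuge the peptide PBS solution, inject the supernatant on HPLC, inject a 50 μM peptide DMSO solution as reference, then calculate solubility as area ratio (PBS/DMSO) × 50 uM.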
# [1] = biological target: T1, full-length beta-Catenin (Uniprot ID P35222) (Homo sapiens, UniProt P35222); experiment: Fluorescence polarization IC50 (beta-catenin / 5FAM-TCF4 10-53 competition); type: binding
# T1 construct: 10 nM full-length beta-Catenin (Uniprot ID P35222)
# T1 sequence (P35222 1-781): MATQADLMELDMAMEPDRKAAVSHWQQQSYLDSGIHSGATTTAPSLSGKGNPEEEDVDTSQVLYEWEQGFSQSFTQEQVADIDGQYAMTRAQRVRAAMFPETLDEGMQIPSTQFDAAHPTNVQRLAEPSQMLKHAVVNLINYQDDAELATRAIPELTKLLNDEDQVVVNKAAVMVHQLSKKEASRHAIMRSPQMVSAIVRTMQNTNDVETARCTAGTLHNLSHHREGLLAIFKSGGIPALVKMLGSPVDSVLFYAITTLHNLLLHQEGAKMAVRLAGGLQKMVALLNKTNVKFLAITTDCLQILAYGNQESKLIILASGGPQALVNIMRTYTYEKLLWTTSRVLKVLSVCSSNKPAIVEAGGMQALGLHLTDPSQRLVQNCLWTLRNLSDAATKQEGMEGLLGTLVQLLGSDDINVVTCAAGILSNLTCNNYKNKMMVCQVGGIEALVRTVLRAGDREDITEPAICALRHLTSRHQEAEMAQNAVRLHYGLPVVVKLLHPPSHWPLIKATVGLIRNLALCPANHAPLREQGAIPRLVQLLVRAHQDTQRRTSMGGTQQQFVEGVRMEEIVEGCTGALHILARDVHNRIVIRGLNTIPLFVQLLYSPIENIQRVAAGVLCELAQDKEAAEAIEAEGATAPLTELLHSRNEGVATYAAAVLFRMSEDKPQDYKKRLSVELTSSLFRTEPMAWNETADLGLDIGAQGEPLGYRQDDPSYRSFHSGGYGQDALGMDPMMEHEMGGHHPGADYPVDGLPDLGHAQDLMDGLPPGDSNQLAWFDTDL
# [2] = fluorescence polarization, beta-catenin, read-out: FP EC50
# [3] = fluorescence polarization, read-out: beta-Catenin FP IC50
Compound,CHI Log D (CHI Log D procedure),Solubility (Solubility in PBS),"IC50 [1, 2]",IC50 ([1]; read-out: beta-Catenin FP IC50),chromatographic logD (CHI Log D procedure),"IC50 [1, 3]",IC50 ([1]; read-out: FP EC50),Solubility (Solubility in PBS; Solubility (uM)),"IC50 ([1]; read-out: beta-Catenin FP IC50, fluorescence polarization)"
"CC[C@H](C)[C@@H]1NC(=O)[C@H](CC(=O)O)NC(=O)[C@]2(CC=CCCCC3(CCCC=CCCCCCC[C@@](C)(C(=O)N[C@@H](Cc4ccccc4)C(=O)N[C@@H](Cc4csc5ccccc45)C(=O)N4CCC[C@H]4C(N)=O)NC(=O)[C@H](CCC(N)=O)NC(=O)[C@H](Cc4ccccc4)NC(=O)[C@H](C)NC(=O)[C@H](C)NC(=O)[C@H](CCC(=O)O)NC(=O)[C@H](CC(=O)O)NC3=O)NC1=O)CCCN2C(C)=O (stereo partly drawn) [I-638, Ac-PL3-Asp-Ile-B5-Asp-Glu-Ala-Ala-Phe-Gln-S8-Phe-BztA-Pro-NH2]",2.622,48 µM,–,–,–,3880 nM,3880 nM,–,–
"CC[C@H](C)[C@@H]1NC(=O)[C@H](CC(=O)O)NC(=O)[C@]2(CC=CCCCC3(CCCC=CCCCCCC[C@@](C)(C(=O)N[C@@H](Cc4ccccc4)C(=O)N[C@@H](Cc4csc5ccccc45)C(=O)N[C@@H](CCC(N)=O)C(N)=O)NC(=O)[C@H](CCC(N)=O)NC(=O)[C@H](Cc4ccccc4)NC(=O)[C@H](Cc4ccccc4)NC(=O)[C@H](C)NC(=O)[C@H](CCC(=O)O)NC(=O)[C@H](CC(=O)O)NC3=O)NC1=O)CCCN2C(C)=O (stereo partly drawn) [I-660, Ac-PL3-Asp-Ile-B5-Asp-Glu-Ala-Phe-Phe-Gln-S8-Phe-BztA-Gln-NH2]",–,–,–,–,2.75,544 nM,–,45 µM,–
"CC(=O)N1CCC[C@]12CC=CCCCC1(CCCC=CCCCCCC[C@@](C)(C(=O)N[C@@H](Cc3ccccc3)C(=O)N[C@@H](Cc3csc4ccccc34)C(=O)N[C@@H](CCC(N)=O)C(N)=O)NC(=O)[C@H](CC(N)=O)NC(=O)[C@H](Cc3ccccc3)NC(=O)[C@H](C)NC(=O)[C@H](C)NC(=O)[C@H](CCC(=O)O)NC(=O)[C@H](CC(=O)O)NC1=O)NC(=O)[C@H](C)NC(=O)[C@H](CNS(C)(=O)=O)NC2=O (stereo partly drawn) [I-534, Ac-PL3-[MeSO2]Dap-Ala-B5-Asp-Glu-Ala-Ala-Phe-Asn-S8-Phe-BztA-Gln-NH2]",–,–,–,–,2.43,5000 nM,–,31 µM,–
"CC[C@H](C)[C@@H]1NC(=O)[C@H](CC(=O)O)NC(=O)[C@]2(CC=CCCCC3(CCCC=CCCCCCC[C@@](C)(C(=O)N[C@@H](Cc4ccccc4)C(=O)N[C@@H](Cc4csc5ccccc45)C(=O)N[C@@H](CCC(N)=O)C(N)=O)NC(=O)[C@H](CCC(N)=O)NC(=O)[C@H](Cc4ccccc4)NC(=O)[C@H](C)NC(=O)[C@H](C)NC(=O)[C@H](CCC(=O)O)NC(=O)[C@H](CC(=O)O)NC3=O)NC1=O)CCCN2C(=O)Cc1ccccc1 (stereo partly drawn) [I-600, Bnc-PL3-Asp-Ile-B5-Asp-Glu-Ala-Ala-Phe-Gln-S8-Phe-BztA-Gln-NH2]",2.694,47 µM,–,–,–,–,796 nM,–,796 nM
"CC(=O)N1CCC[C@]12CC=CCCCC1(CCCC=CCCCCCC[C@@](C)(C(=O)N[C@@H](Cc3ccsc3)C(=O)N[C@@H](Cc3csc4ccccc34)C(=O)N[C@@H](Cc3c[nH]cn3)C(N)=O)NC(=O)[C@H](CC(N)=O)NC(=O)[C@H](Cc3ccccc3)NC(=O)[C@H](C)NC(=O)[C@H](C)NC(=O)[C@H](CCC(=O)O)NC(=O)[C@H](CC(=O)O)NC1=O)NC(=O)[C@H](C)NC(=O)[C@H](CC(=O)O)NC2=O (stereo partly drawn) [I-515, Ac-PL3-Asp-Ala-B5-Asp-Glu-Ala-Ala-Phe-Asn-S8-3Thi-BztA-His-NH2]",2.028,46 µM,–,–,–,54 nM,54 nM,–,–
"CC[C@H](C)[C@@H]1NC(=O)[C@H](CC(=O)O)NC(=O)[C@]2(CC=CCCCC3(CCCC=CCCCCCC[C@@](C)(C(=O)N[C@@H](Cc4ccccc4)C(=O)N[C@@H](Cc4csc5ccccc45)C(N)=O)NC(=O)[C@H](CCC(N)=O)NC(=O)[C@H](Cc4ccccc4)NC(=O)[C@H](C)NC(=O)[C@H](C)NC(=O)[C@H](CCC(=O)O)NC(=O)[C@H](CC(=O)O)NC3=O)NC1=O)CCCN2C(C)=O (stereo partly drawn) [I-409, Ac-PL3-Asp-Ile-B5-Asp-Glu-Ala-Ala-Phe-Gln-S8-Phe-BztA-NH2]",2.741,48 µM,–,–,–,70 nM,70 nM,–,–
"COCCOCCOCCOCCC(=O)NCCCC[C@H](NC(=O)[C@H](CCC(N)=O)NC(=O)[C@H](Cc1csc2ccccc12)NC(=O)[C@H](Cc1ccsc1)NC(=O)[C@]12CCN(C1)C(=O)OCCCC=CCCCC1(CCCC=CC[C@]3(CCCN3C(C)=O)C(=O)N[C@@H](CC(=O)O)C(=O)N[C@@H](CC(C)(C)C)C(=O)N1)C(=O)N[C@@H](CC(=O)O)C(=O)N[C@@H](CC(=O)O)C(=O)N[C@@H](C)C(=O)N[C@@H](C)C(=O)N[C@@H](Cc1ccccc1)C(=O)N[C@@H](CC(N)=O)C(=O)N2)C(N)=O (stereo partly drawn) [I-912, Ac-PL3-Asp-Npg-B5-Asp-Asp-Ala-Ala-Phe-Asn-PyrS2-3Thi-BztA-Gln-[mPEG4]Lys-NH2]",–,–,–,10 nM,1.83,–,–,45 µM,–
"CC(=O)N1CCC[C@]12CC=CCCCC1(CCCC=CCCCCCC[C@@](C)(C(=O)N[C@@H](Cc3ccccc3)C(=O)N[C@@H](Cc3csc4ccccc34)C(=O)N[C@H](C(N)=O)[C@@H](C)O)NC(=O)[C@H](CCC(N)=O)NC(=O)[C@H](Cc3ccccc3)NC(=O)[C@H](C)NC(=O)[C@H](C)NC(=O)[C@H](CCC(=O)O)NC(=O)[C@H](CC(=O)O)NC1=O)NC(=O)[C@H](C)NC(=O)[C@H](CC(=O)O)NC2=O (stereo partly drawn) [I-508, Ac-PL3-Asp-Ala-B5-Asp-Glu-Ala-Ala-Phe-Gln-S8-Phe-BztA-Thr-NH2]",2.126,50 µM,–,–,–,73 nM,73 nM,–,–

# Continued, in another order:
CHI Log D (CHI Log D procedure),Solubility (Solubility in PBS),"IC50 [1, 2]",IC50 ([1]; read-out: beta-Catenin FP IC50),chromatographic logD (CHI Log D procedure),"IC50 [1, 3]",IC50 ([1]; read-out: FP EC50),Solubility (Solubility in PBS; Solubility (uM)),Compound,"IC50 ([1]; read-out: beta-Catenin FP IC50, fluorescence polarization)"
3.22,48 µM,43 nM,43 nM,–,–,–,–,"CC(=O)N1CCC[C@]12CC=CCCCC1(CCCC=CCCCCCC[C@@](C)(C(=O)N[C@@H](Cc3ccccc3Cl)C(=O)N[C@@H](Cc3csc4ccccc34)C(=O)N[C@@H](C(N)=O)[C@H](C)O)NC(=O)[C@H]([C@@H](C)O)NC(=O)[C@H](Cc3ccccc3)NC(=O)[C@H](C)NC(=O)[C@H](C)NC(=O)[C@H](CCC(=O)O)NC(=O)[C@H](CC(=O)O)NC1=O)NC(=O)[C@H](CC(C)(C)C)NC(=O)[C@H](CC(=O)O)NC2=O (stereo partly drawn) [I-1093, Ac-PL3-Asp-Npg-B5-Asp-Glu-Ala-Ala-Phe-Thr-S8-2C1F-BztA-dThr-NH2]",–
1.884,45 µM,1740 nM,1740 nM,–,–,–,–,"CCN(CC(=O)O)C[C@@H]1NC(=O)[C@H](CC(=O)O)NC(=O)C2(CCCC=CCCCOC(=O)N3CC[C@@](C(=O)N[C@@H](Cc4ccsc4)C(=O)N[C@@H](Cc4csc5ccccc45)C(=O)N[C@@H](CCC(N)=O)C(N)=O)(C3)NC(=O)[C@H](CO)NC(=O)[C@H](Cc3ccccc3)NC(=O)[C@H](C)NC(=O)[C@H](C)NC1=O)CCCC=CC[C@]1(CCCN1C(C)=O)C(=O)N[C@@H](CC(=O)O)C(=O)N[C@@H](CC(C)(C)C)C(=O)N2 (stereo partly drawn) [I-967, Ac-PL3-Asp-Npg-B5-Asp-EtGA-Ala-Ala-Phe-Ser-PyrS2-3Thi-BztA-Gln-NH2]",–
–,10 µM,–,–,2.41,108 nM,–,–,"CC(=O)N1CCC[C@]12CC=CCCCC1(CCCC=CCCCCCC[C@@](C)(C(=O)N[C@@H](Cc3ccccc3)C(=O)N[C@@H](Cc3csc4ccccc34)C(=O)N[C@@H](Cc3c[nH]cn3)C(N)=O)NC(=O)[C@H](CCCNC(N)=O)NC(=O)[C@H](Cc3ccccc3)NC(=O)[C@H](C)NC(=O)[C@H](C)NC(=O)[C@H](CCC(=O)O)NC(=O)[C@H](CC(=O)O)NC1=O)NC(=O)[C@H](CC(C)C)NC(=O)[C@H](CC(=O)O)NC2=O (stereo partly drawn) [I-616, Ac-PL3-Asp-Leu-B5-Asp-Glu-Ala-Ala-Phe-Cit-S8-Phe-BztA-His-NH2]",–
–,10 µM,–,40 nM,2.72,–,–,–,"CC(=O)N1CCC[C@]12CC=CCCCC1(CCCC=CCCCOC(=O)N3CC[C@@](C(=O)N[C@@H](Cc4ccccc4Cl)C(=O)N[C@@H](Cc4csc5ccccc45)C(=O)N[C@@H](CO)C(N)=O)(C3)NC(=O)[C@H](CC(C)C)NC(=O)[C@H](Cc3ccccc3)NC(=O)[C@H](C)NC(=O)[C@H](C)NC(=O)[C@H](CC(=O)O)NC(=O)[C@H](CC(=O)O)NC1=O)NC(=O)[C@H](CC1CCCCC1)NC(=O)[C@H](CC(=O)O)NC2=O (stereo partly drawn) [I-1112, Ac-PL3-Asp-Cha-B5-Asp-Asp-Ala-Ala-Phe-Leu-PyrS2-2C1F-BztA-Ser-NH2]",–
–,10 µM,–,51 nM,2.7,–,–,–,"CC(=O)N1CCC[C@]12CC=CCCCC1(CCCC=CCCCOC(=O)N3CC[C@@](C(=O)N[C@@H](Cc4ccccc4Cl)C(=O)N[C@@H](Cc4csc5ccccc45)C(=O)N[C@H](C(N)=O)[C@@H](C)O)(C3)NC(=O)[C@H](Cc3ccccc3)NC(=O)[C@H](Cc3ccccc3)NC(=O)[C@H](C)NC(=O)[C@H](C)NC(=O)[C@H](CN(CC(=O)O)CC(F)(F)F)NC(=O)[C@H](CC(=O)O)NC1=O)NC(=O)[C@H](CC(C)(C)C)NC(=O)[C@H](CC(=O)O)NC2=O (stereo partly drawn) [I-991, Ac-PL3-Asp-Npg-B5-Asp-TfeGA-Ala-Ala-Phe-Phe-PyrS2-2C1F-BztA-Thr-NH2]",–
